Measured values reported in patent US6608049B2, “Indazoles” (Bayer Aktiengesellschaft, priority 2000, dated 2003).

experiment: T3 promoter assay cell test (luciferase reporter under a thyroid hormone-regulated promoter); assay type: cell-based; conditions: Homo sapiens; HepG2 luciferase reporter; costimulator retinolic acid; incubation 48 or 72 hours; four replicates
Procedure: The efficacy of the compounds according to the invention can be tested, for example, in vitro by the T3 promoter assay cell test described below:
The test is carried out using a stably transfected, human HepG2 hepatocarcinoma cell which expresses a luciferase gene under the control of a thyroid hormone-regulated promoter. The vector used for the transfection carries a minimal thymidine kinase promoter ahead of the luciferase gene having a thyroid hormone-responsive element (TRE) which consists of two inverted palindromes of 12 bp each and one 8 bp spacer.
For the test, the cell cultures are inoculated into 96 well plates in Eagle's Minimal Essential Medium with the following additives: glutamine, tricine [N-(tris-(hydroxymethyl)-methyl)-glycine], sodium pyruvate, non-essential amino acids (L-Ala, L-Asn, L-Asp, L-Pro, L-Ser, L-Glu, Gly), insulin, selenium and transferrin. The cultures are grown at 37° C. and under a 10% CO2 atmosphere for 48 hours. Serial dilutions of test substance or reference compound (T3, T4) and costimulator retinolic acid are then added to the test cultures and these are incubated for a further 48 or 72 hours as beforehand. Each substance concentration is tested in four replicates. For the determination of the luciferase induced by T3 or other substances, the cells are then lysed by addition of a Triton- and […] buffer (Promega) and immediately measured luminometrically. The EC50 values of each compound are calculated.

SMILES	EC50
CCCCCc1n[nH]c2ccc(Oc3c(C)cc(NC(=O)C(=O)OCC)cc3C)cc12 [Example 11, Ethyl ({3,5-dimethyl-4-[(3-pentyl-1H-indazol-5-yl)oxy]phenyl}amino)(oxo)acetate]	10 nM
CCCCCc1n[nH]c2ccc(Oc3c(C)cc(NC(=O)C(=O)O)cc3C)cc12 [Example 11a, ({3,5-dimethyl-4-[(3-pentyl-1H-indazol-5-yl)oxy]phenyl}amino)(oxo)acetic acid]	13 nM
CCCCCc1n[nH]c2ccc(Oc3c(C)cc(NC(=O)CC(=O)OC)cc3C)cc12 [Example 18, Methyl-({3,5-dimethyl-4-[(3-pentyl-1H-indazol-5-yl)oxy]phenyl}amino)-3-(oxo)-propionate]	18 nM
CCCc1n[nH]c2ccc(Oc3c(C)cc(N)cc3C)cc12 [Example 4, 5-(4-Amino-2,6-dimethylphenoxy)-3-propyl-1H-indazole]	115 nM
CCCCCc1n[nH]c2ccc(Oc3c(C)cc(NCC(=O)OCC)cc3C)cc12 [Example 16, Ethyl ({3,5-dimethyl-4-[(3-pentyl-1H-indazol-5-yl)oxy]phenyl}amino)acetate]	10 nM
CCOC(=O)C(=O)Nc1cc(C)c(Oc2ccc3[nH]nc(C(C)C)c3c2)c(C)c1 [Example 9, Ethyl ({3,5-dimethyl-4-[(3-isopropyl-1H-indazol-5-yl)oxy]phenyl}amino)(oxo)-acetate]	190 nM
